Data: patent US8445501B2, “Substituted 7-carboxamido-pyrrolo[3,2-d]pyrimidines” (Takeda GmbH, priority 2008, dated 2013)

Target: T1, human PDE5 (Homo sapiens, UniProt O76074)
T1 construct: from tissue; host or cells: platelets from fresh blood of human donors (lysate, 10,000 g supernatant)
Assay: Inhibition of the type 5 phosphodiesterase (PDE5) activity, modified SPA test with platelet lysate
Assay type: biochemical
Conditions: PDE5 from human platelet lysate, 0.5 μM cGMP
Procedure: Method for Measuring Inhibition of the Type 5 Phosphodiesterase (PDE5) Activity:
As a source for human PDE5, platelets are used. For that purpose, 150 ml fresh blood from human donors anticoagulated with citrate [final concentration 0.3% (w/v)] is centrifuged at 200 g for 10 min to obtain the so-called platelet-rich-plasma (PRP) as a supernatant. 1/10 volume of ACD solution (85 mM Na3-citrate, 111 mM D-glucose, 71 mM citric acid, pH 4.4) is added to 9/10 volume of PRP. After centrifugation (1,400 g, 10 min) the cell pellet is resuspended in 3 ml homogenization buffer (NaCl 140 mM, KCl 3.8 mM, EGTA (ethylene glycol tetraacetic acid) 1 mM, MgCl2 1 mM, Tris-HCl 20 mM, beta-mercaptoethanol 1 mM, pH 8.2) plus protease-inhibitor mix giving rise to the final concentrations of 0.5 mM Pefablock (Roche), 10 μM Leupeptin, 5 μM Trypsininhibitor, 2 mM Benzamidin and 10 μM Pepstatin A. The suspension is sonified and thereafter centrifuged for 15 min at 10,000 g. The resulting supernatant (platelet lysate) is used for enzymatic testings.
PDE5A1 activity is inhibited by the compounds of the invention in a modified SPA (scintillation proximity assay) test, supplied by Amersham Biosciences (see procedural instructions “phosphodiesterase [3H]cAMP SPA enzyme assay, code TRKQ 7090”), carried out in 96-well microtitre plates (MTP's). The test volume is 100 μl and contains 20 mM Tris buffer (pH 7.4), 0.1 mg of BSA (bovine serum albumin)/ml, 5 mM Mg^2+, 1 μM motapizone, 10 nM PDE2 inhibitor 2-(3,4-dimethoxybenzyl)-7-[(1R,2R)-2-hydroxy-1-(2-phenylethyl)propyl]-5-methylimidazo[5,1-f][1,2,4]triazin-4(3H)-one, 0.5 μM cGMP (cyclic guanosine monophosphate) (including about 50,000 cpm of [3H]cGMP as a tracer), 1 μl of the respective compound dilution in dimethylsulfoxide (DMSO) and sufficient PDE5-containing platelet lysat (10,000×g supernatant, see above) to ensure that 10-20 wt % of the cGMP is converted under the said experimental conditions. […] After a preincubation of 5 min at 37° C., the reaction is started by adding the substrate (cGMP) and the assay is incubated for a further 15 min; after that, it is stopped by adding SPA beads (50 μl). In accordance with the manufacturer's instructions, the SPA beads had previously been resuspended in water, but are then diluted 1:3 (v/v) in water; the diluted solution also contains 3 mM […] (IBMX) to ensure a complete PDE activity stop. After the beads have been sedimented (>30 min), the MTP's are analyzed in commercially available luminescence detection de-vices. The corresponding IC50 values of the compounds for the inhibition of PDE activity are deter-mined from the concentration-effect curves by means of non-linear regression.

Row | Structure (SMILES) | IC50 [nM]
1 | CCC(=O)N1CCC(NC(=O)c2c[nH]c3c(-c4c(OCC5CC5)ccc5c4OCO5)ncnc23)CC1 [Example 1, 4-(5-Cyclopropylmethoxy-1,3-benzodioxol-4-yl)-5H-pyrrolo[3,2-d]pyrimidine-7-carboxylic acid (1-propionyl-piperidin-4-yl)-amide] | 0.0776
2 | CCCCOc1ccc2c(c1-c1ncnc3c(C(=O)NC4CCCN(C(=O)CC)C4)c[nH]c13)OCO2 (centres unmarked) [Example 147, 4-(5-Butoxy-benzo[1,3]dioxol-4-yl)-5H-pyrrolo[3,2-d]pyrimidine-7-carboxylic acid (1-propionyl-piperidin-3-yl)-amide] | 0.24
3 | CC(=O)N1CCC[C@H](NC(=O)c2c[nH]c3c(-c4c(OCC5CC5)ccc5c4OCO5)ncnc23)C1 [Example 46, 4-(5-Cyclopropylmethoxy-benzo[1,3]dioxol-4-yl)-5H-pyrrolo[3,2-d]pyrimidine-7-carboxylic acid ((S)-1-acetyl-piperidin-3-yl)-amide] | 1.38
4 | COCC(=O)N1CCC[C@@H](NC(=O)c2c[nH]c3c(-c4cc(F)c(OC)cc4OCC4CC4)ncnc23)C1 [Example 112, 4-(2-Cyclopropylmethoxy-5-fluoro-4-methoxy-phenyl)-5H-pyrrolo[3,2-d]pyrimidine-7-carboxylic acid [(R)-1-(2-methoxy-ethanoyl)-piperidin-3-yl]amide] | 0.138
5 | COc1ccc(-c2ncnc3c(C(=O)N[C@H]4CC[C@H](NC(=O)C5CC5)CC4)c[nH]c23)c(OCC2CC2)c1 [Example 52, trans-4-(2-Cyclopropylmethoxy-4-methoxy-phenyl)-5H-pyrrolo[3,2-d]pyrimidine-7-carboxylic acid [4-(cyclopropanecarbonyl-amino)cyclohexyl]-amide] | 0.302
6 | CC(=O)N[C@H]1CC[C@H](NC(=O)c2c[nH]c3c(-c4cc(C)ccc4OCC4CC4)ncnc23)CC1 [Example 120, trans-4-(2-Cyclopropylmethoxy-5-methyl-phenyl)-5H-pyrrolo[3,2-d]pyrimidine-7-carboxylic acid (4-acetylamino-cyclohexyl)-amide] | 1.2
7 | COCC(=O)N1CC[C@@H](NC(=O)c2c[nH]c3c(-c4c(OCC5CC5)ccc5c4OCO5)ncnc23)C1 [Example 13, 4-(5-Cyclopropylmethoxy-benzo[1,3]dioxol-4-yl)-5H-pyrrolo[3,2-d]pyrimidine-7-carboxylic acid [(R)-1-(2-methoxy-acetyl)pyrrolidin-3-yl]-amide] | 0.776
8 | COCC(=O)N1CCC[C@H](NC(=O)c2c[nH]c3c(-c4c(OCC5CC5)ccc5c4OCO5)ncnc23)C1 [Example 45, 4-(5-Cyclopropylmethoxy-benzo[1,3]dioxol-4-yl)-5H-pyrrolo[3,2-d]pyrimidine-7-carboxylic acid [(S)-1-(2-methoxy-ethanoyl)-piperidin-3-yl]amide] | 1.55
9 | CC(=O)N[C@H]1CC[C@H](NC(=O)c2c[nH]c3c(-c4ccccc4OCC4CC4)ncnc23)CC1 [Example 90, trans-4-(2-Cyclopropylmethoxy-phenyl)-5H-pyrrolo[3,2-d]pyrimidine-7-carboxylic acid (4-acetylamino-cyclohexyl)-amide] | 5.62
10 | COCC(=O)N1CC(NC(=O)c2c[nH]c3c(-c4c(OCC5CC5)ccc5c4OCO5)ncnc23)C1 [Example 41, 4-(5-Cyclopropylmethoxy-benzo[1,3]dioxol-4-yl)-5H-pyrrolo[3,2-d]pyrimidine-7-carboxylic acid [1-(2-methoxy-ethanoyl)-azetidin-3-yl]amide] | 0.891
11 | CCCCOc1ccc2c(c1-c1ncnc3c(C(=O)N[C@@H]4CCN(C(=O)CC)C4)c[nH]c13)OCO2 [Example 150, 4-(5-Butoxy-benzo[1,3]dioxol-4-yl)-5H-pyrrolo[3,2-d]pyrimidine-7-carboxylic acid ((R)-1-propionyl-pyrrolidin-3-yl)-amide] | 0.389
12 | CC(=O)N1CC[C@H](NC(=O)c2c[nH]c3c(-c4c(OCC5CC5)ccc5c4OCO5)ncnc23)C1 [Example 19, 4-(5-Cyclopropylmethoxy-benzo[1,3]dioxol-4-yl)-5H-pyrrolo[3,2-d]pyrimidine-7-carboxylic acid ((S)-1-acetyl-pyrrolidin-3-yl)-amide] | 2.45

Continued, values first:

Row | IC50 [nM] | Structure (SMILES)
13 | 2.29 | Cc1ccc(OCC2CC2)c(-c2ncnc3c(C(=O)N[C@H]4CC[C@H](NC(=O)CO)CC4)c[nH]c23)c1 [Example 243, trans-4-(2-Cyclopropylmethoxy-5-methyl-phenyl)-5H-pyrrolo[3,2-d]pyrimidine-7-carboxylic acid [4-(2-hydroxy-acetylamino)-cyclohexyl]-amide]
14 | 0.708 | COCCNC(=O)[C@H]1CC[C@H](NC(=O)c2c[nH]c3c(-c4ccc(OC)cc4OCC4CC4)ncnc23)CC1 [Example 272, trans-4-(2-Cyclopropylmethoxy-4-methoxy-phenyl)-5H-pyrrolo[3,2-d]pyrimidine-7-carboxylic acid [4-(2-methoxy-ethylcarbamoyl)-cyclohexyl]-amide]
15 | 13.8 | COCCOc1ccc2c(c1-c1ncnc3c(C(=O)NC4CCN(C(=O)COC)CC4)c[nH]c13)OCO2 [Example 170, 4-[5-(2-Methoxy-ethoxy)-benzo[1,3]dioxol-4-yl]-5H-pyrrolo[3,2-d]pyrimidine-7-carboxylic acid [1-(2-methoxy-acetyl)piperidin-4-yl]-amide]
16 | 6.46 | C[C@H](O)C(=O)N1CCC(NC(=O)c2c[nH]c3c(-c4cc(F)ccc4OCC4CC4)ncnc23)CC1 [Example 221, 4-(2-Cyclopropylmethoxy-5-fluoro-phenyl)-5H-pyrrolo[3,2-d]pyrimidine-7-carboxylic acid [1-((S)-2-hydroxy-propionyl)piperidin-4-yl]-amide]
17 | 7.08 | C[C@H](O)C(=O)N[C@H]1CC[C@H](NC(=O)c2c[nH]c3c(-c4ccccc4OCC4CC4)ncnc23)CC1 [Example 225, trans-4-(2-Cyclopropylmethoxy-phenyl)-5H-pyrrolo[3,2-d]pyrimidine-7-carboxylic acid [4-((S)-2-hydroxy-propionylamino)-cyclohexyl]-amide]
18 | 0.123 | O=C(N[C@H]1CC[C@H](NC(=O)C2(O)CC2)CC1)c1c[nH]c2c(-c3c(OCC4CC4)ccc4c3OCO4)ncnc12 [Example 177, trans-4-(5-Cyclopropylmethoxy-benzo[1,3]dioxol-4-yl)-5H-pyrrolo[3,2-d]pyrimidine-7-carboxylic acid {4-[(1-hydroxy-cyclopropanecarbonyl)-amino]-cyclohexyl}-amide]
19 | 1.91 | O=C(CO)N[C@H]1CC[C@H](NC(=O)c2c[nH]c3c(-c4cc(F)ccc4OCC4CC4)ncnc23)CC1 [Example 222, trans-4-(2-Cyclopropylmethoxy-5-fluoro-phenyl)-5H-pyrrolo[3,2-d]pyrimidine-7-carboxylic acid [4-(2-hydroxy-acetylamino)-cyclohexyl]-amide]
20 | 0.257 | COc1ccc(-c2ncnc3c(C(=O)N[C@H]4CC[C@@H](NC(=O)C5(O)CC5)CC4)c[nH]c23)c(OCC2CC2)c1 [Example 204, cis-4-(2-Cyclopropylmethoxy-4-methoxy-phenyl)-5H-pyrrolo[3,2-d]pyrimidine-7-carboxylic acid {-[(1-hydroxy-cyclopropanecarbonyl)-amino]-cyclohexyl}-amide]
21 | 2.88 | C[C@H](O)C(=O)N1CCC(NC(=O)c2c[nH]c3c(-c4cc(F)c(OC(F)F)cc4OCC4CC4)ncnc23)CC1 [Example 284, 4-[2-Cyclopropylmethoxy-4-(1,1-difluoro-methoxy)-5-fluoro-phenyl]-5H-pyrrolo[3,2-d]pyrimidine-7-carboxylic acid [1-((S)-2-hydroxy-propionyl)-piperidin-4-yl]-amide]
22 | 851 | O=C(NC1CCN(C(=O)CO)CC1)c1c[nH]c2c(-c3cc(F)c(O)cc3OCC3CC3)ncnc12 [Example 281, 4-(2-Cyclopropylmethoxy-5-fluoro-4-hydroxy-phenyl)-5H-pyrrolo[3,2-d]pyrimidine-7-carboxylic acid [1-(2-hydroxy-acetyl)piperidin-4-yl]-amide]
23 | 1.32 | O=C(NC1CN(C(=O)CO)C1)c1c[nH]c2c(-c3c(OCC4CC4)ccc4c3OCO4)ncnc12 [Example 195, 4-(5-Cyclopropylmethoxy-benzo[1,3]dioxol-4-yl)-5H-pyrrolo[3,2-d]pyrimidine-7-carboxylic acid [1-(2-hydroxy-ethanoyl)-azetidin-3-yl]-amide]
